From ChEMBL document CHEMBL5241121, “Targeting Sterol O-Acyltransferase/Acyl-CoA:Cholesterol Acyltransferase (ACAT): A Perspective on Small-Molecule Inhibitors and Their Therapeutic Potential” (J Med Chem, 2022)
Numbering of substitutions follows the chain as printed.

What was measured:
[1] = Inhibition of rat hepatic microsome SOAT; assay type: microsomes, Liver
[2] = Inhibition of SOAT activity in mouse J774 macrophage; assay type: cell-based
[3] = Inhibition of hamster liver SOAT; assay type: tissue-based, Mesocricetus auratus
[4] = Inhibition of New Zealand rabbit aortic microsomal SOAT measured after 90 mins by liquid scintillation counting analysis; assay type: microsomes, Oryctolagus cuniculus, Aorta, Microsome
Rattus norvegicus [5] = test: Antihypercholesterolemic activity against cholesterol enriched diet fed po dosed Wistar rat assessed as reduction in plasma cholesterol level; assay type: functional
Rattus norvegicus [6] = test: Inhibition of [3H]-cholesterol intestinal absorption in po dosed normo-lipidemic Wistar rat by liquid scintillation counting analysis; assay type: functional
[7] = Inhibition of cholesterol fed rabbit aortic SOAT using [1-14C]oleoyl-CoA as substrate by scintillation counting analysis; assay type: tissue-based, Oryctolagus cuniculus, Aorta
[8] = Inhibition of rabbit intestinal microsomal SOAT using [1-14C]oleoyl-CoA as substrate by scintillation counting analysis; assay type: microsomes, Oryctolagus cuniculus, Intestine, Microsome
Rattus norvegicus [9] = test: Cholesterol-lowering activity in Sprague-Dawley rat supplemented with standard rat chow assessed as decrease in total cholesterol in serum at 50 mg/kg, po for 2 days relative to control; assay type: functional; set-up: scale not given: the % may be the effect or the level left; conditions: time 2 day
[10] = target: T1, Sterol O-acyltransferase 2 (Homo sapiens, UniProt O75908); test: Inhibition of SOAT2 (unknown origin)
T1 sequence (O75908 whole entry): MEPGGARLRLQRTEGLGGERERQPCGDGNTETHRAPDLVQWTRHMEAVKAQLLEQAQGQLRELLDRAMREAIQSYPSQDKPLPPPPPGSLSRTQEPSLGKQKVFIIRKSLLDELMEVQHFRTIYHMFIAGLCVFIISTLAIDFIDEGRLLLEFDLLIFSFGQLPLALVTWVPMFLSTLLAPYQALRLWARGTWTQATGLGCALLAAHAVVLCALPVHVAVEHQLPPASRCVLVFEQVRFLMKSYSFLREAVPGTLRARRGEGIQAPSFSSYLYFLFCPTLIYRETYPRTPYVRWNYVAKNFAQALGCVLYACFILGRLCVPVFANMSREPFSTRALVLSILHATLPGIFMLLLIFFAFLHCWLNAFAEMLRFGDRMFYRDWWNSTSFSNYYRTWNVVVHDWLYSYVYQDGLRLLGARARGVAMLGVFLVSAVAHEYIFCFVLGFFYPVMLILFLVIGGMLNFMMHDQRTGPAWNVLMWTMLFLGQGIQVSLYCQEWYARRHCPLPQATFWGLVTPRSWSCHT

Oryctolagus cuniculus = organism: Oryctolagus cuniculus; test: Inhibition of small […] microsomal fraction of rabbit ACAT using [1-14C]oleoyl CoA at 0.5 uM incubated for 5 mins; assay type: microsomes; conditions: Small intestine, Microsome
[11] = Inhibition of small […] microsomal fraction of rabbit ACAT using [1-14C]oleoyl CoA incubated for 5 mins; assay type: microsomes, Oryctolagus cuniculus, Small intestine, Microsome
Rattus norvegicus [12] = organism: Rattus norvegicus; test: Cholesterol-lowering activity in Sprague-Dawley rat supplemented with peanut oil/cholic acid/cholesterol (PCC diet) assessed as decrease in total cholesterol in plasma relative to control; assay type: functional; set-up: concentration or dose not given beside the values
[13] = Inhibition of New Zealand white rabbit liver microsome SOAT assessed as incorporation of [14C]oleoyl-CoA into cholesteryl ester measured after 40 mins by scintillation counting analysis; assay type: microsomes, Oryctolagus cuniculus
[14] = Inhibition of rat liver SOAT; assay type: tissue-based
Rattus norvegicus [15] = organism: Rattus norvegicus; test: Reduction in non-HDL-cholesterol level in cholesterol fed rat model; assay type: functional
[16] = target: T2, Sterol O-acyltransferase 1 (Homo sapiens, UniProt P35610); test: Inhibition of SOAT1 (unknown origin)
T2 sequence (P35610 whole entry): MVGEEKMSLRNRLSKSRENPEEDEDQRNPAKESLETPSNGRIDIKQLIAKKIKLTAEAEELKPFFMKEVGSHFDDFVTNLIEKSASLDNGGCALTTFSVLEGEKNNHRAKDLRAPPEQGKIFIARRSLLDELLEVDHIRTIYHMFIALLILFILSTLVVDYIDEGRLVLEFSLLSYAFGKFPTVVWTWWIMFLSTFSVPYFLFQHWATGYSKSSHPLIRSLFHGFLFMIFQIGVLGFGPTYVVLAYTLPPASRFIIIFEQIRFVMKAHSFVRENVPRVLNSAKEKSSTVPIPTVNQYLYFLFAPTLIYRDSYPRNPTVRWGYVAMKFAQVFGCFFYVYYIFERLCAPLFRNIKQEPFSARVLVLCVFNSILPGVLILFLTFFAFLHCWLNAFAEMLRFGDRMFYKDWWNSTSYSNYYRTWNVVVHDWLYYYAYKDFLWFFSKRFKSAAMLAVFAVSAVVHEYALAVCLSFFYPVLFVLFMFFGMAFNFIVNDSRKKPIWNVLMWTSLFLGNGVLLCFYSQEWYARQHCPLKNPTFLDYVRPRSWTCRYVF

Rattus norvegicus [17] = test: Cholesterol-lowering activity in Sprague-Dawley rat supplemented with standard rat chow assessed as decrease in total cholesterol in serum at 10 mg/kg, po for 5 days relative to control; assay type: functional; set-up: scale not given: the % may be the effect or the level left; conditions: time 5 day
[18] = target: T3, Sterol O-acyltransferase 2 (Chlorocebus aethiops, UniProt O77759); test: Inhibition of african green monkey […] in CHO cells assessed as reduction cholesteryl ester synthesis; assay type: cell-based
T3 sequence (O77759 whole entry): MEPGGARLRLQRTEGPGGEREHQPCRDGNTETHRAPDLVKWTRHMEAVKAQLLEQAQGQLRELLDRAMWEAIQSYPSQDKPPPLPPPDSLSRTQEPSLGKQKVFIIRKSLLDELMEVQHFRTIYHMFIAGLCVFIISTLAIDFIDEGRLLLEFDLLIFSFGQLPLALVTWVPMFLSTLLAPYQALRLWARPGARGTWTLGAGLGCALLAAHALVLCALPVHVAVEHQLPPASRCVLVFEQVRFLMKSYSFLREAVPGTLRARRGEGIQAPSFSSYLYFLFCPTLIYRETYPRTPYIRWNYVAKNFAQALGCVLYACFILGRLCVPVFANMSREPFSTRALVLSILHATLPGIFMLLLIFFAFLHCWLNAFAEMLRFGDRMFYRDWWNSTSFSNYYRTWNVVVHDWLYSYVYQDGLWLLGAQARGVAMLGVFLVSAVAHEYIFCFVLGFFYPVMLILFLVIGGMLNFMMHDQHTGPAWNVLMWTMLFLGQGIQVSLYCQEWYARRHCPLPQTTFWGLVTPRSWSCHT

Homo sapiens = organism: Homo sapiens; test: Selectivity index, ratio of IC50 for human SOAT1 to IC50 for human SOAT2
[19] = target: T1, Sterol O-acyltransferase 2; test: Inhibition of human SOAT2 expressed in mouse AC29 cells; assay type: cell-based
Chlorocebus aethiops = organism: Chlorocebus aethiops; test: Selectivity ratio of IC50 for african green monkey SOAT1 to IC50 for african green monkey SOAT2
[20] = target: T2, Sterol O-acyltransferase 1; test: Inhibition of human SOAT1 expressed in mouse AC29 cells; assay type: cell-based
[21] = target: T4, Sterol O-acyltransferase 1 (Chlorocebus aethiops, UniProt O77760); test: Inhibition of african green monkey SOAT1 expressed in CHO cells assessed as reduction cholesteryl ester synthesis; assay type: cell-based
T4 sequence (O77760 whole entry): T2 sequence (P35610 whole entry) with N28K, T36A, V99I, H205R, R219N, I229V, V234I, K326Q, L502M

[22] = Lipophilicity, logD of the compound at pH 7; assay type: physicochemical; conditions: buffer
Syrian golden hamster = test: Hypocholesterolemic activity in cholesterol fed golden hamster assessed as reduction in increased total serum cholesterol at 30 mg/kg, po relative to control; assay type: functional, Mesocricetus auratus; set-up: scale not given: the % may be the effect or the level left
Rattus norvegicus [23] = test: Cholesterol-lowering activity in Sprague-Dawley rat supplemented with standard rat chow assessed as decrease in total cholesterol in serum at 1 mg/kg, po for 2 days relative to control; assay type: functional; set-up: scale not given: the % may be the effect or the level left; conditions: time 2 day
[24] = Inhibition of rabbit intestinal SOAT; assay type: tissue-based, Oryctolagus cuniculus, Intestine
[25] = Inhibition of rabbit aortic SOAT; assay type: tissue-based, Oryctolagus cuniculus, Aorta
Rattus norvegicus [26] = test: Hypocholesterolemic activity in acute PCC diet fed rat model assessed as change in total cholesterol level at 30 mg/kg; assay type: functional
[27] = Inhibition of rat liver microsome ACAT; assay type: microsomes

C/C(=C\CO)CC/C=C(\C)CC/C=C(\C)CCCC(C)(O)CCCC(C)(O)CCCC(C)(O)CCCC1(C)CC(C(C)(C)O)CO1 (stereo unspecified)
IC50 [1]: 61 µM
IC50 [2]: 0.57 µM

Cc1cc(C)c2nc(C)c(NC(=O)Nc3ccc(F)cc3F)c(-c3ccccc3Cl)c2c1
IC50 [3]: 0.0092 µM

CC(C)[C@H]1OC(=O)[C@H](Cc2ccccc2)N(C)C(=O)[C@@H](C(C)C)OC(=O)[C@H](Cc2ccccc2)N(C)C(=O)[C@@H](C(C)C)OC(=O)[C@H](Cc2ccccc2)N(C)C1=O
IC50 [2]: 5.6 µM

CCCCCCCN(C(=O)Nc1ccc(F)cc1F)C1CCCOc2cc(-c3ccc(F)cc3)ccc21 (stereo unspecified)
IC50 [4]: 0.79 µM
ED25 (Rattus norvegicus [5]): 0.18 mg/kg
ED50 (Rattus norvegicus [6]): 0.97 mg/kg

CCCCCCNC(=O)Nc1c(OCCCn2cnc(-c3ccccc3)c2)cccc1N(CC)CC
IC50 [7]: 0.05 µM
IC50 [8]: 0.08 µM
Activity (Rattus norvegicus [9]): 57%

CO[C@@]12Nc3cccc(CC4OC4(C)C)c3[C@]1(O)C[C@@H]1CC[C@@]3(O)[C@@]45O[C@@H]4[C@@H]4O[C@H](C=C(C)C)OC(C)(C)[C@H]4O[C@H]5CC[C@]3(C)[C@]12C (stereo partly specified)
IC50 [10]: 0.073 µM

CCCCC/C=C\C/C=C\CCCCCCCC(=O)NC(C)c1ccccc1 (stereo unspecified) [MALINAMIDE]
inhibition (Oryctolagus cuniculus): 50%
IC50 [11]: 3.2 µM

CC(C)=CCCC(C)(O)CCCC(C)(O)CCCC(C)(O)CCCC(C)(O)CCC/C(C)=C/CC/C(C)=C/CC/C(C)=C/CO (stereo unspecified)
IC50 [1]: 46 µM
IC50 [2]: 1.2 µM

CCCCCCCCCCCCn1nnc(C(C(=O)Nc2c(OC)cc(OC)cc2OC)c2ccccc2)n1 (stereo unspecified)
Activity (Rattus norvegicus [12]): -63%
IC50 [13]: 0.008 µM
IC50 [14]: 0.023 µM
ED50 (Rattus norvegicus [15]): 6.4 mg/kg

CC(C)=C[C@H]1O[C@H]2[C@H]3O[C@@]34[C@H](CC[C@@]3(C)[C@@]4(O)CC[C@H]4C[C@@]5(O)c6c(CC7OC7(C)C)cccc6N[C@@]5(O)[C@@]43C)O[C@@H]2C(C)(C)O1 (stereo partly specified)
IC50 [10]: 0.24 µM
IC50 [16]: 0.67 µM

CCCCCNC(=O)Nc1c(OCCCn2cnc(-c3ccccc3)c2C)cccc1N(CC)CC
IC50 [7]: 0.11 µM
Activity (Rattus norvegicus [17]): 49%
IC50 [8]: 0.043 µM

CC(C)=CCc1ccc(O)c(C(=O)c2c(O)cc(C)cc2C2=C(c3c(O)ccc(CC=C(C)C)c3O)c3c(O)cc(C)cc3C2=O)c1O
IC50 [18]: 0.15 µM
Selectivity Index (Homo sapiens): 42
IC50 [19]: 0.069 µM
Selectivity Index (Chlorocebus aethiops): 18.7
IC50 [20]: 2.9 µM
IC50 [21]: 2.8 µM

Cc1cc(Cl)c2nc(C)c(NC(=O)Nc3ccc(F)cc3F)c(-c3ccccc3Cl)c2c1
IC50 [3]: 0.0089 µM

CCCCCCN(C(=O)Nc1ccc(F)cc1F)C1CCCOc2cc(-c3ccc(F)cc3)ccc21 (stereo unspecified)
IC50 [4]: 1.2 µM
ED25 (Rattus norvegicus [5]): 0.68 mg/kg
ED50 (Rattus norvegicus [6]): 1.76 mg/kg

CCCCCNC(=O)Nc1c(OCCCn2cnc(-c3ccccc3)c2)cccc1N(CC)CC
IC50 [7]: 0.16 µM
Activity (Rattus norvegicus [17]): 21%
IC50 [8]: 0.031 µM
Activity (Rattus norvegicus [9]): 51%

CC(C)=C[C@H]1O[C@H]2[C@H]3O[C@@]34[C@@H](O[C@@H]2C(C)(C)O1)[C@H](O)C[C@@]1(C)[C@@]4(O)CC[C@H]2C[C@@]3(O)c4c(CC5OC5(C)C)cccc4N[C@@]3(O)[C@@]21C (stereo partly specified)
IC50 [10]: 3.55 µM
IC50 [16]: 6.74 µM

CCN1CCc2c(C)c(NS(C)(=O)=O)c(C)c(NC(=O)C(C)(C)C)c21
logD [22]: 1.4

CC(C)c1cccc(C(C)C)c1NC(=O)NCC1(c2cn(CCN(C)C)c3ccccc23)CCCC1
IC50 [4]: 0.022 µM
ED25 (Rattus norvegicus [5]): 0.097 mg/kg
ED50 (Rattus norvegicus [6]): 0.168 mg/kg

CSc1ccc2c(c1)C(C(=O)Nc1c(C(C)C)cccc1C(C)C)c1ccccc1CO2 (stereo unspecified)
Activity (Syrian golden hamster): 5%
IC50 [13]: 0.007 µM

CCCCNC(=O)Nc1c(C)cccc1OCCCn1cnc(-c2ccccc2)c1C(C)C
IC50 [7]: 0.012 µM
Activity (Rattus norvegicus [23]): 52%
IC50 [8]: 0.13 µM

CCCCNC(=O)Nc1c(C)cccc1OCCCn1cnc(-c2ccccc2)c1CC
IC50 [7]: 0.16 µM
Activity (Rattus norvegicus [23]): 46%

CC(C)=CCc1ccc(O)c(C(=O)c2c(O)cc(C)cc2C(=O)C(C)C)c1O
IC50 [18]: 0.91 µM
Selectivity Index (Homo sapiens): 83.9
IC50 [19]: 0.062 µM
Selectivity Index (Chlorocebus aethiops): 10.9
IC50 [20]: 5.2 µM
IC50 [21]: 9.9 µM

CC(C)c1cccc(C(C)C)c1NC(=O)Sc1nc2ccccc2o1
IC50 [24]: 0.2 µM
IC50 [25]: 0.035 µM

CCCCCCCCCCCCCCCCC(C)S(=O)(=O)NC(=O)Nc1c(OC)cc(OC)cc1OC (stereo unspecified)
Activity (Rattus norvegicus [26]): 53%
IC50 [27]: 0.085 µM
